Reference: PMC11697777, “How ligands modulate the gastric H,K-ATPase activity and its inhibition by tegoprazan” (The Journal of Biological Chemistry, 2024)
Where two headings read alike, the source gives them in different places.

Biological target: T1, gastric H,K-ATPase (Sus scrofa, UniProt P19156)
T1 construct: We prepared H,K-ATPase (EC 7.2.2.19)-enriched membrane vesicles according to Sachs et al; from tissue; host or cells: gastric membrane vesicles
Assay: H,K-ATPase activity (Pi release from ATP) inhibition, steady-state kinetic analysis
Format: biochemical, hog
Settings: for IC50: 10 mM KCl, read-out: K0.5 for inhibition of ATPase activity; for Kd: fit of model III (binding to E2P and E1ATP), 37 °C
Protocol: We prepared H,K-ATPase (EC 7.2.2.19)-enriched membrane vesicles according to Sachs et al. ([36]), with slight modifications. The number of nucleotide sites measured under optimal conditions (2.2 mM ATP, 4 mM MgCl2, 0.25 mM EDTA in 25 mM imidazole–HCl, pH 7.4 at 25 °C) was 1.4 nmol per mg of protein. This preparation is essentially free of contamination with Na,K-ATPase, as evidenced by the lack of ouabain-sensitive activity. 0.4 to 0.6 mg alamethicin per milligram protein was used to permeabilize the vesicles.
ATP hydrolysis by H,K-ATPase was measured by following the time course of Pi release at 37 °C; linearity was always checked in order to ensure initial rate conditions. Pi concentration was determined according to the method described by Baginski et al. ([37]) Incubations were performed at 37 °C in media containing 8 μg protein ml^−1, 2 mM ATP, 4 mM MgCl2, and 0.25 mM EDTA in 20 mM imidazole – 20 mM Tris (varying pH) in a final volume of 0.25 ml. KCl concentrations varied between 0 and 100 mM, using choline chloride to adjust total monovalent salt concentration to 150 mM. Reaction blanks were determined by measuring ATP hydrolysis in media containing vanadate. For experiments at variable pH, a buffer combination of 20 mM imidazole-HCl and 20 mM Tris–HCl was used. Tegoprazan and SCH28080 were dissolved in DMSO. The final DMSO concentration in the reaction media was 1%.
were fitted to the data of ATPase activity by nonlinear regression based on the Gauss–Newton algorithm by commercial programs ([38]). Kis parameters are apparent dissociation constants expressed in concentration units, whereas the ais parameters are coefficients with units of activity. A methodical exploration of the equation that best fits each set of results was performed. We first determined the degree of the polynomials in the numerator and the denominator (considering the restriction of n ≤ d and m ≤ d to conform to steady-state equations for enzymes) and then evaluated the contribution of terms of intermediate degree. The goodness of fit of a given equation to the experimental results was evaluated by the AICc ([39]) defined as(5) AICc=N·ln(SS/N)+2·(K+1)·N/(N−K−2) with N: number of data, K: number of parameters, and SS: sum of weighted square residual errors. This criterion allows one to select among multiple equations, the one that best describes the behavior of the experimental data using the least number of parameters, that is the lower value of AICc.
The equations of activity as a function of ligands for each kinetic model were attained using the Mathematica for Windows program. To determine the parameters that will be used to simulate the data, the rate constants and pKa values were fitted to the results using a procedure based on the Gauss–Newton algorithm until the SD of the residual errors reaches a minimal value.

T1 sequence (P19156 2-1034 limits assumed): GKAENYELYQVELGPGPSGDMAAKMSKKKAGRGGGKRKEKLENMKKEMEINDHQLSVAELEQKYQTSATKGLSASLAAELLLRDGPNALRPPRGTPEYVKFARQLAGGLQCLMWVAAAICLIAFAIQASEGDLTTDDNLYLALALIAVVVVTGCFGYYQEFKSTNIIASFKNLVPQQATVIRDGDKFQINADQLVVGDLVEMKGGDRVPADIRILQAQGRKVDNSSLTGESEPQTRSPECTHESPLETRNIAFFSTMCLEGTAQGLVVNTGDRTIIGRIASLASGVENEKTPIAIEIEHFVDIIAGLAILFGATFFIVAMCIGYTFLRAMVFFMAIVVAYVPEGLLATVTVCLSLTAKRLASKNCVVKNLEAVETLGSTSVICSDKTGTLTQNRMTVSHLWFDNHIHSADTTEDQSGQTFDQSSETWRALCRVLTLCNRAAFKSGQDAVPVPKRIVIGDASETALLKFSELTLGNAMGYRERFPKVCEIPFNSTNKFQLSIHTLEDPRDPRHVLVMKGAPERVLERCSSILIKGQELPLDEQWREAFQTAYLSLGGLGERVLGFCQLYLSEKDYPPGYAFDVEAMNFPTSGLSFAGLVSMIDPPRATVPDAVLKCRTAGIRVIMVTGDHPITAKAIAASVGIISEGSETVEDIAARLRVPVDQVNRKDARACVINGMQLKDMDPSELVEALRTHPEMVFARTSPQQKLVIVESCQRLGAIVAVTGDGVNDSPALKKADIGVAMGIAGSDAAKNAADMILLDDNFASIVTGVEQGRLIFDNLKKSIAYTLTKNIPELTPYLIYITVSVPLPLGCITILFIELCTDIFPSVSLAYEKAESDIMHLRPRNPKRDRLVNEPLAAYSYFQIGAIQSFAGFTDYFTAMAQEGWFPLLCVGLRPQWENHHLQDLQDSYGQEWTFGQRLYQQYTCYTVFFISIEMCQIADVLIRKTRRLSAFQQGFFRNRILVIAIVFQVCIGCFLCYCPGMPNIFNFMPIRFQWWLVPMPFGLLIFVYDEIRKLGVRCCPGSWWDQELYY
T1 sequence (P18434 whole entry partner): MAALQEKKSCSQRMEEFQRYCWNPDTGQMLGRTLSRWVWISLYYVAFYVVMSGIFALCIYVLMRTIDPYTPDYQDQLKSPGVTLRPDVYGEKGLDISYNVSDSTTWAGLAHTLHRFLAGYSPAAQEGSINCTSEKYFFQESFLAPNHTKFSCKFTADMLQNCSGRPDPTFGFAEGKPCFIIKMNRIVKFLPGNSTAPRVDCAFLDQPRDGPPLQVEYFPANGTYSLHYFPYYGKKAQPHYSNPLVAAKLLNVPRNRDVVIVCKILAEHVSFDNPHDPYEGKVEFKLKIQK

SMILES: Cc1nc2c(O[C@H]3CCOc4cc(F)cc(F)c43)cc(C(=O)N(C)C)cc2[nH]1 [tegoprazan, (S)-4-((5,7-difluorochroman-4-yl)oxy)-N,N,2-trimethyl−1Hbenzo[d]imidazole-6-carboxamide]
- effect of inhibitor on K0.5 for potassium (Equation 3) ([K+] 0-15 mM, pH 7.2): increase in K0.5
- effect of inhibitor on Vmax (Equation 3) ([K+] 0-15 mM, pH 7.2): decrease in Vmax
- effect of inhibitor on K1, apparent high-affinity dissociation constant for K+ (Equation 1) ([K+] 0-75 mM): increase in K1
- effect of inhibitor on K2, apparent low-affinity dissociation constant for K+ (Equation 1) ([K+] 0-75 mM): slight increase
- effect of inhibitor on a1, theoretical maximal activity (Equation 1) ([K+] 0-75 mM): decreases as a function of the inhibitor concentration
- Kii, equilibrium constant for low-affinity binding (E2KATP), model II (fit of model II (binding to E2P and E2KATP), [K+] 0-75 mM): 3.55 µM
- Ki (fit of model II (binding to E2P and E2KATP), [K+] 0-75 mM, read-out: Ki, equilibrium constant for high-affinity binding (E2P), model II): 410 nM
- IC50 (pH 6.2): 890 ± 40 nM
- IC50 (pH 7.2): 3250 ± 290 nM
- Kd (pH 7.2, [K+] 0-75 mM, read-out: apparent Kd / apparent affinity constant, high-affinity binding (Ki) to E2P, model III): 560 ± 40 nM
- Kd (pH 7.2, [K+] 0-75 mM, read-out: apparent Kd / apparent affinity constant, low-affinity binding (Kii) to E1ATP, model III): 2700 ± 240 nM
